Test results as given in patent publication US20260109690A1, “HDAC6 INHIBITORS AND METHOD OF THEIR USE” (Baerenkraft Therapeutics, LLC., priority 2024, published 2026).
Structures can show the parent of a compound that is named as a salt.

What follows are compounds tested against T1, HDAC6 (Homo sapiens, UniProt Q9UBN7) (assay: Biochemical HDAC6 inhibitory activity assay). Details: 10-dose IC50 mode, in singlet, 3-fold serial dilution starting at 1 μM; read-out: HDAC6 IC50.
T1 sequence (Q9UBN7 1-1215): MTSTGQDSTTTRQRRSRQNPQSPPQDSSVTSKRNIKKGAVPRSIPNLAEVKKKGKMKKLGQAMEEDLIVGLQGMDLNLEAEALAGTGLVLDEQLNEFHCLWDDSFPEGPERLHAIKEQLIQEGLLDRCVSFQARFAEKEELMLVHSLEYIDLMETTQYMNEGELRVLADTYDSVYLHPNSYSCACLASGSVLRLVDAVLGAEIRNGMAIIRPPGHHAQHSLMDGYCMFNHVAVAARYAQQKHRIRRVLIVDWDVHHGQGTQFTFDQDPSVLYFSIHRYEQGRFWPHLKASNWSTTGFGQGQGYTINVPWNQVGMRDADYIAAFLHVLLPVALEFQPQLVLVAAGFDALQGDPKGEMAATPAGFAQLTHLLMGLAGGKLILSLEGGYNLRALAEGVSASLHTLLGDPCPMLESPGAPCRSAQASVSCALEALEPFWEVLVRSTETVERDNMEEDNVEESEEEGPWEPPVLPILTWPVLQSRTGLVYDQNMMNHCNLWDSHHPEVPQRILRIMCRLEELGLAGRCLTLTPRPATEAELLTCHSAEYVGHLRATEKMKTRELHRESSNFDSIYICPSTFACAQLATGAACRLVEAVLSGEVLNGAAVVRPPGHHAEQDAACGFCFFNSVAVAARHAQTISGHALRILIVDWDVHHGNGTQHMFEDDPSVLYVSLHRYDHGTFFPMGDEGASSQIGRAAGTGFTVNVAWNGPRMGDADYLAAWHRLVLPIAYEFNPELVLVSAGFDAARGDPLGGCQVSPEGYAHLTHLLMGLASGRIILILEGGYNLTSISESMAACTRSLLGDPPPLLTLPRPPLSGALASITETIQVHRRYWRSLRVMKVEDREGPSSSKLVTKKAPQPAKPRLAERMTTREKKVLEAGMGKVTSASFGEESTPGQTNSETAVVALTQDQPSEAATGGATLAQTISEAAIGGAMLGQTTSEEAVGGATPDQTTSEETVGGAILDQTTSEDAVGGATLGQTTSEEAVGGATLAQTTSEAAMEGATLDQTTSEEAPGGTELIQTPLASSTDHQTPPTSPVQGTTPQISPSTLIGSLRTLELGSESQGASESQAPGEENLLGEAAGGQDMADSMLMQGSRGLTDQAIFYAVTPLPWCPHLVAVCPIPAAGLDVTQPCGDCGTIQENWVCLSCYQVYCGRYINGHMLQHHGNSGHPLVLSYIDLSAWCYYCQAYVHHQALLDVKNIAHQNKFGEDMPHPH

IC50 [µM]	SMILES
0.016	C[C@H]1CN(Cc2ccc(Nc3nccc(-c4ccc(C(=O)NO)cc4)n3)cc2F)CCO1 [Compound I-15, (S)-4-(2-((3-fluoro-4-((2-methylmorpholino)methyl)phenyl)amino)pyrimidin-4-yl)-N-hydroxybenzamide]

Same assay, conditions: read-out: HDAC6 IC50

SMILES	IC50 [µM]
O=C(NO)c1ccc(-c2ccnc(Nc3ccc(C(=O)N4CCOCC4)c(F)c3)n2)cc1 [Compound I-1, 4-(2-((3-fluoro-4-(morpholine-4-carbonyl)phenyl)amino)pyrimidin-4-yl)-N-hydroxybenzamide]	< 1
N#CNC(=O)c1ccc(-c2ccnc(Nc3ccc(C(=O)N4CCOCC4)c(F)c3)n2)cc1 [Compound I-2, N-cyano-4-(2-((3-fluoro-4-(morpholine-4-carbonyl)phenyl)amino)pyrimidin-4-yl)benzamide]	> 100
CC1CCN(C(=O)c2ccc(Nc3nccc(-c4ccc(C(=O)NO)cc4)n3)cc2F)CC1 [Compound I-3, 4-(2-((3-fluoro-4-(4-methylpiperidine-1-carbonyl)phenyl)amino)pyrimidin-4-yl)-N-hydroxybenzamide]	< 1
CN1CCN(C(=O)c2ccc(Nc3nccc(-c4ccc(C(=O)NO)cc4)n3)cc2F)CC1 [Compound I-4, 4-(2-((3-fluoro-4-(4-methylpiperazine-1-carbonyl)phenyl)amino)pyrimidin-4-yl)-N-hydroxybenzamide]	< 1
CC(c1ccc(Nc2nccc(-c3ccc(C(=O)NO)cc3)n2)cc1F)N1CCN(C)CC1 (stereo not drawn) [Compound I-10, 4-(2-((3-fluoro-4-(1-(4-methylpiperazin-1-yl)ethyl)phenyl)amino)pyrimidin-4-yl)-N-hydroxybenzamide]	< 1
CC1CN(C(C)c2ccc(Nc3nccc(-c4ccc(C(=O)NO)cc4)n3)cc2F)CCO1 (stereo not drawn) [Compound I-13, 4-(2-((3-fluoro-4-(1-(2-methylmorpholino)ethyl)phenyl)amino)pyrimidin-4-yl)-N-hydroxybenzamide]	< 1
CCNNC(=O)c1ccc(-c2ccnc(Nc3ccc(C(=O)N4CCOCC4)c(F)c3)n2)cc1 [Compound I-18, N′-ethyl-4-(2-((3-fluoro-4-(morpholine-4-carbonyl)phenyl)amino)pyrimidin-4-yl)benzohydrazide]	< 1
CCNNC(=O)c1ccc(-c2ccnc(N3CCOCC3)n2)cc1 [Compound I-21, N′-ethyl-4-(2-morpholinopyrimidin-4-yl)benzohydrazide]	< 1
CCNNC(=O)c1ccc(-c2ccnc(N3CCC4(CC3)COC4)n2)cc1 [Compound I-23, 4-(2-(2-oxa-7-azaspiro[3.5]nonan-7-yl)pyrimidin-4-yl)-N′-ethylbenzohydrazide]	< 1
CCNNC(=O)c1ccc(-c2nc(N3CCC4(CC3)COC4)ncc2Cl)cc1 [Compound I-24, 4-(5-chloro-2-(2-oxa-7-azaspiro[3.5]nonan-7-yl)pyrimidin-4-yl)-N′-ethylbenzohydrazide]	> 100
C[C@H]1CN(Cc2ccc(-c3ccnc(Nc4ccc(-c5nnc(C(F)F)o5)cc4F)n3)c(F)c2)CCO1 [Compound I-36, (S)-N-(4-(5-(difluoromethyl)-1,3,4-oxadiazol-2-yl)-2-fluorophenyl)-4-(2-fluoro-4-((2-methylmorpholino)methyl)phenyl)pyrimidin-2-amine]	1 to 10
C[C@H]1CN(c2ccc(Nc3nccc(-c4ccc(-c5nnc(C(F)F)o5)cn4)n3)cc2F)CCO1 [Compound I-38, (S)-4-(5-(5-(difluoromethyl)-1,3,4-oxadiazol-2-yl)pyridin-2-yl)-N-(3-fluoro-4-(2-methylmorpholino)phenyl)pyrimidin-2-amine]	1 to 10

Other lines, results leading:

IC50 [µM]	SMILES
< 1	CC1CCN(Cc2ccc(Nc3nccc(-c4ccc(C(=O)NO)cc4)n3)cc2F)CC1 [Compound I-6, 4-(2-((3-fluoro-4-((4-methylpiperidin-1-yl)methyl)phenyl)amino)pyrimidin-4-yl)-N-hydroxybenzamide]
< 1	CC1CN(c2ccc(Nc3nccc(-c4ccc(C(=O)NO)cc4)n3)cc2F)CCO1 (stereo not drawn) [Compound I-11, 4-(2-((3-fluoro-4-(2-methylmorpholino)phenyl)amino)pyrimidin-4-yl)-N-hydroxybenzamide]
1 to 10	Cc1cc(-c2ccnc(Nc3ccc(N4CCOC(C)C4)c(F)c3)n2)ccc1C(=O)NO (stereo not drawn) [Compound I-12, 4-(2-((3-fluoro-4-(2-methylmorpholino)phenyl)amino)pyrimidin-4-yl)-N-hydroxy-2-methylbenzamide]
< 1	CC1CN(CC(=O)Nc2nccc(-c3ccc(C(=O)NO)cc3)n2)CCO1 (stereo not drawn) [Compound I-14, N-hydroxy-4-(2-(2-(2-methylmorpholino)acetamido)pyrimidin-4-yl)benzamide]
< 1	C[C@H]1CN(Cc2ccc(Nc3nccc(-c4ccc(C(=O)NO)cc4)n3)cc2F)CCO1 [Compound I-15, (S)-4-(2-((3-fluoro-4-((2-methylmorpholino)methyl)phenyl)amino)pyrimidin-4-yl)-N-hydroxybenzamide]
< 1	O=C(NO)c1ccc(-c2nc(Nc3ccc(C(=O)N4CCOCC4)c(F)c3)ncc2Cl)cc1 [Compound I-17, 4-(5-chloro-2-((3-fluoro-4-(morpholine-4-carbonyl)phenyl)amino)pyrimidin-4-yl)-N-hydroxybenzamide]
< 1	CCNNC(=O)c1ccc(-c2ccnc(Nc3ccc(C(=O)N4CCOCC4)cc3)n2)cc1 [Compound I-19, N′-ethyl-4-(2-((4-(morpholine-4-carbonyl)phenyl)amino)pyrimidin-4-yl)benzohydrazide]
1 to 10	CCNNC(=O)c1ccc(-c2ccnc(NC(=O)N3CCOCC3)n2)cc1 [Compound I-20, N-(4-(4-(2-ethylhydrazine-1-carbonyl)phenyl)pyrimidin-2-yl)morpholine-4-carboxamide]
> 100	CCNNC(=O)c1ccc(-c2nc(N3CCOCC3)ncc2Cl)cc1 [Compound I-22, 4-(5-chloro-2-morpholinopyrimidin-4-yl)-N′-ethylbenzohydrazide]
1 to 10	C[C@H]1CN(Cc2ccc(Nc3nccc(-c4ccc(-c5nnc(C(F)F)o5)cc4)n3)cc2F)CCO1 [Compound I-30, (S)-4-(4-(5-(difluoromethyl)-1,3,4-oxadiazol-2-yl)phenyl)-N-(3-fluoro-4-((2-methylmorpholino)methyl)phenyl)pyrimidin-2-amine]
< 1	C[C@H]1CN(Cc2ccc(Nc3nccc(-c4ccc(-c5nnc(C(F)F)o5)cc4F)n3)cc2F)CCO1 [Compound I-31, (S)-4-(4-(5-(difluoromethyl)-1,3,4-oxadiazol-2-yl)-2-fluorophenyl)-N-(3-fluoro-4-((2-methylmorpholino)methyl)phenyl)pyrimidin-2-amine]
1 to 10	C[C@@H]1CN(Cc2ccc(Nc3nccc(-c4ccc(-c5nnc(C(F)F)o5)cc4)n3)cc2F)CCO1 [Compound I-32, (R)-4-(4-(5-(difluoromethyl)-1,3,4-oxadiazol-2-yl)phenyl)-N-(3-fluoro-4-((2-methylmorpholino)methyl)phenyl)pyrimidin-2-amine TFA salt]
< 1	C[C@@H]1CN(Cc2ccc(Nc3nccc(-c4ccc(-c5nnc(C(F)F)o5)cc4F)n3)cc2F)CCO1 [Compound I-33, (R)-4-(4-(5-(difluoromethyl)-1,3,4-oxadiazol-2-yl)-2-fluorophenyl)-N-(3-fluoro-4-((2-methylmorpholino)methyl)phenyl)pyrimidin-2-amine]
1 to 10	C[C@H]1CN(Cc2ccc(Nc3nccc(-c4ccc(-c5nnc(C(F)F)o5)cn4)n3)cc2F)CCO1 [Compound I-34, (S)-4-(5-(5-(difluoromethyl)-1,3,4-oxadiazol-2-yl)pyridin-2-yl)-N-(3-fluoro-4-((2-methylmorpholino)methyl)phenyl)pyrimidin-2-amine]
10 to 35	C[C@@H]1CN(Cc2ccc(Nc3nccc(-c4ccc(-c5nnc(C(F)F)o5)cn4)n3)cc2F)CCO1 [Compound I-35, (R)-4-(5-(5-(difluoromethyl)-1,3,4-oxadiazol-2-yl)pyridin-2-yl)-N-(3-fluoro-4-((2-methylmorpholino)methyl)phenyl)pyrimidin-2-amine]
1 to 10	C[C@@H]1CN(c2ccc(Nc3nccc(-c4ccc(-c5nnc(C(F)F)o5)cn4)n3)cc2F)CCO1 [Compound I-39, (R)-4-(5-(5-(difluoromethyl)-1,3,4-oxadiazol-2-yl)pyridin-2-yl)-N-(3-fluoro-4-(2-methylmorpholino)phenyl)pyrimidin-2-amine]
1 to 10	Fc1cc(Nc2nccc(-c3ccc(-c4nnc(C(F)F)o4)cn3)n2)ccc1N1CCOCC1 [Compound I-40, 4-(5-(5-(difluoromethyl)-1,3,4-oxadiazol-2-yl)pyridin-2-yl)-N-(3-fluoro-4-morpholinophenyl)pyrimidin-2-amine]
